Values quoted from earlier work, collected in patent US20110015663A1, “Combination Therapies for the Treatment of Obesity” (priority 2009, published 2011).

Settings: not given

Row | Molecule | solubility in water
1 | G-2-beta-cyclodextrin | 147 % (w/v)
2 | triacetyl-beta-cyclodextrin | insoluble

Settings: literature studies

Row | Molecule | weight loss for drug compared with placebo
3 | CC(C)CC(N(C)C)C1(c2ccc(Cl)cc2)CCC1 (stereo not drawn) [sibutramine] | about 5 % of body weight
4 | CCCCCCCCCCC[C@@H](C[C@@H]1OC(=O)[C@H]1CCCCCC)OC(=O)[C@H](CC(C)C)NC=O [orlistat] | about 5 % of body weight
5 | CCN[C@@H](C)Cc1cccc(C(F)(F)F)c1 [dexfenfluramine] | about 5 % of body weight
6 | CC(C)(N)Cc1ccccc1 [phentermine] | about 5 % of body weight
